Results taken from US20230407243A1, “GENETIC PLATFORM TO INVESTIGATE THE FUNCTIONS OF BACTERIAL DRUG EFFLUX PUMPS” (priority 2022, published 2023).
Like-named read-outs stand apart in the source and are kept apart here.

What was measured:
Type in all cases: cell-based, Escherichia coli
[1] = test system: EKO-35 araC::acrD Pore; assay: MIC susceptibility profiling, porinated efflux platform; conditions: for Fold changes of MICs: EKO-35 araC::acrD Pore compared to EKO-35-Pore; for MIC: Escherichia coli, Table 14A, porinated, technical duplicate, read-out: Minimum inhibitory concentration, EKO-35 araC::acrD Pore
Procedure: (§1) For genomic integration of the pore, the fhuA ΔC/Δ4L gene and the adjacent gentamicin resistance cassette were amplified using a high-fidelity polymerase and the fhuA_40_Up/gImS_3680_Low primers (Table 4). Integration of the pore gene was performed as described above. The pore gene was introduced into the intergenic region between the glmS and pstS genes, with gene expression under the control of a constitutive promoter (Kearse, M. et al., 2012). Genomic integrations were verified using PCR (Primers: pstS_520_Up/glmS_3680_Low, Table 4). Successful integrations were transformed with pCP20 to remove the gentamicin resistance cassette as previously described. Activity of the pore was confirmed through susceptibility testing with the large antibiotic vancomycin prior to phenotypic profiling and further susceptibility testing.
(§2) Single colonies were used to inoculate 3 mL of LB followed by incubation at 37° C. for 18 h with aeration at 220 rpm. The bacterial cells were harvested by centrifugation and resuspended in phosphate buffered saline (PBS) ([pH 7.4], 137 mM NaCl (Bioshop), 2.7 mM KCl (Bioshop), 10 mM Na2PO4 (Bioshop) and 1.8 mM K2PO4) to an OD600 nm˜1.0, followed by 1/2000 dilution into MHB II.
(§3) To a 384-well microtiter plate (Corning, untreated polystyrene), 500 nL of compound was dispensed, in duplicate, and serially titrated 2-fold using an Echo 550 acoustic liquid dispenser (Labcyte Inc.). […] As a solvent control, 500 nL of DMSO was applied to wells that contained no compound. Using a multichannel pipette, 50 μL of the prepared bacterial inoculum was applied to each well. To enable background correction post-incubation, the OD600 nm was measured (Biotek Synergy Neo2 microplate reader) prior to incubation. The plates were incubated at 37° C. with aeration at 900 rpm for 18 h. The plates were equilibrated to room temperature and the OD600 nm measured using a BioTek Synergy Neo2 microplate reader. Data was analyzed in both Prism (GraphPad, Version 9.2.0) and Microsoft Excel (Version 16.53). Raw data were input into Microsoft Excel and the pre-incubation OD600 nm measurements were subtracted from the post-incubation OD600 nm measurements. These corrected measurements were input into Prism 9 as a grouped analysis. […] All other MIC values were adjusted accordingly and visualized using the single-color scale grouped heat map function. Identification of compound chemical properties was achieved using DataWarrior (Version 5.5.0). Using PubChem, the SMILES chemical notation for each compound was obtained and compiled in Microsoft Excel. The resulting spreadsheet was input into DataWarrior and properties were calculated from the compound chemical structures.

[2] = test system: EKO-35 araC::emrAB Pore; assay: as above; conditions: for Fold changes of MICs: EKO-35 araC::emrAB Pore compared to EKO-35-Pore; for MIC: Escherichia coli, EKO-35 araC::emrAB Pore, technical duplicate, read-out: Minimum inhibitory concentration
Procedure: as §1, §2, §3

[3] = test system: EKO-35 araC::acrB Pore; assay: as above
Procedure: as §1, §2, §3

[4] = test system: EKO-35 araC::acrBD408A Pore; assay: as above; conditions: for Fold changes of MICs: EKO-35 araC::acrBD408A Pore compared to EKO-35-Pore; for MIC: Escherichia coli, EKO-35 araC::acrBD408A Pore, technical duplicate, read-out: Minimum inhibitory concentration
Procedure: as §1, §2, §3

[5] = test system: EKO-35 araC::acrEF Pore; assay: as above; conditions: for Fold changes of MICs: EKO-35 araC::acrEF Pore compared to EKO-35-Pore; for MIC: Escherichia coli, Table 14A, porinated, technical duplicate, read-out: Minimum inhibitory concentration, EKO-35 araC::acrEF Pore
Procedure: as §1, §2, §3

[6] = test system: wild-type (WT) K-12-Pore; assay: microbe, parasite or virus in culture; conditions: Escherichia coli, technical duplicate
Procedure: as §1, §2, §3

[7] = test system: ΔtolC-Pore; assay: microbe, parasite or virus in culture; conditions: for MIC: Escherichia coli, 18 h, read-out: Minimum inhibitory concentration, ΔtolC-Pore; for Minimum inhibitory concentration (MIC), Pore ΔtolC: Table 10, with pore, technical duplicate
Procedure: as §1, §2, §3

[8] = test system: EKO-35-Pore; assay: MIC susceptibility profiling, porinated strain; conditions: for Fold changes of MICs: EKO-35-Pore compared to EKO-35-Pore (reference); for MIC: Escherichia coli, technical duplicate
Procedure: as §1, §2, §3

[9] = test system: EKO-35 araC::mdtEF; assay: MIC susceptibility profiling, efflux platform; conditions: for Fold change of MICs: EKO-35 araC::mdtEF compared to EKO-35; for MIC: Escherichia coli, Table 13A, non-porinated, technical duplicate, read-out: Minimum Inhibitory Concentration, EKO-35 araC::mdtEF
Procedure: as §2, §3

[10] = test system: EKO-35 araC::acrB; assay: MIC susceptibility profiling, efflux platform; conditions: for Fold change of MICs: EKO-35 araC::acrB compared to EKO-35; for MIC: Escherichia coli, Table 13A, non-porinated, technical duplicate, read-out: Minimum Inhibitory Concentration, EKO-35 araC::acrB
Procedure: as §2, §3

[11] = test system: EKO-35 araC::mdtBC; assay: MIC susceptibility profiling, efflux platform; conditions: for Fold change of MICs: EKO-35 araC::mdtBC compared to EKO-35; for MIC: Escherichia coli, Table 13B, non-porinated, technical duplicate, read-out: Minimum Inhibitory Concentration, EKO-35 araC::mdtBC
Procedure: as §2, §3

[12] = test system: EKO-35 araC::acrBD408A; assay: MIC susceptibility profiling, efflux platform; conditions: for Fold change of MICs: EKO-35 araC::acrBD408A compared to EKO-35; for MIC: Escherichia coli, Table 13B, non-porinated, technical duplicate, read-out: Minimum Inhibitory Concentration, EKO-35 araC::acrBD408A
Procedure: as §2, §3

[13] = test system: EKO-35 araC::macAB; assay: MIC susceptibility profiling, efflux platform; conditions: for Fold change of MICs: EKO-35 araC::macAB compared to EKO-35; for MIC: Escherichia coli, Table 13B, non-porinated, technical duplicate, read-out: Minimum Inhibitory Concentration, EKO-35 araC::macAB
Procedure: as §2, §3

[14] = test system: EKO-35 araC::mexCD (MexCD from P. aeruginosa); assay: MIC susceptibility profiling, efflux platform; conditions: for Fold change of MICs: EKO-35 araC::mexCD compared to EKO-35; for MIC: Table 13B, non-porinated, technical duplicate, read-out: Minimum Inhibitory Concentration, EKO-35 araC::mexCD
Procedure: as §2, §3

[15] = test system: EKO-35 araC::acrD; assay: MIC susceptibility profiling, efflux platform; conditions: for Fold change of MICs: EKO-35 araC::acrD compared to EKO-35; for MIC: Escherichia coli, Table 13A, non-porinated, technical duplicate, read-out: Minimum Inhibitory Concentration, EKO-35 araC::acrD
Procedure: as §2, §3

[16] = test system: EKO-35 araC::emrKY; assay: MIC susceptibility profiling, efflux platform; conditions: for Fold change of MICs: EKO-35 araC::emrKY compared to EKO-35; for MIC: Escherichia coli, Table 13B, non-porinated, technical duplicate, read-out: Minimum Inhibitory Concentration, EKO-35 araC::emrKY
Procedure: as §2, §3

[17] = test system: EKO-35 araC::emrAB; assay: MIC susceptibility profiling, efflux platform; conditions: for Fold change of MICs: EKO-35 araC::emrAB compared to EKO-35; for MIC: Escherichia coli, Table 13B, non-porinated, technical duplicate, read-out: Minimum Inhibitory Concentration, EKO-35 araC::emrAB
Procedure: as §2, §3

[18] = test system: EKO-35 araC::acrEF; assay: MIC susceptibility profiling, efflux platform; conditions: for Fold change of MICs: EKO-35 araC::acrEF compared to EKO-35; for MIC: Escherichia coli, Table 13A, non-porinated, technical duplicate, read-out: Minimum Inhibitory Concentration, EKO-35 araC::acrEF
Procedure: as §2, §3

[19] = Table 10, with pore, read-out: Minimum inhibitory concentration (MIC), Pore K-12
[20] = Table 14A, porinated, read-out: Minimum inhibitory concentration, K-12 (WT)-Pore
[21] = Table 10, with pore, read-out: Minimum inhibitory concentration (MIC), Pore EKO-35
[22] = Table 14A, porinated, read-out: Minimum inhibitory concentration, EKO-35-Pore

SMILES	MIC [1]	MIC [2]	MIC [4]	MIC [5]	MIC [6, 19]	MIC [6, 20]	MIC [7]	Minimum inhibitory concentration (MIC), Pore ΔtolC [7]	MIC [8, 21]	MIC [8, 22]	MIC [9]	MIC [10]	MIC [11]	MIC [12]	MIC [13]	MIC [14]	MIC [15]	MIC [16]	MIC [17]	MIC [18]	other results
CN(C)c1ccc(O)c2c1C[C@H]1C[C@H]3[C@H](N(C)C)C(O)=C(C(N)=O)C(=O)[C@@]3(O)C(O)=C1C2=O [minocycline]	0.098 µg/mL	0.049 µg/mL	0.049 µg/mL	0.098 µg/mL	0.781 µg/mL	0.781 µg/mL	0.098 µg/mL	0.098 µg/mL	0.049 µg/mL	0.049 µg/mL	0.049 µg/mL	0.391 µg/mL	0.049 µg/mL	0.049 µg/mL	0.049 µg/mL	0.049 µg/mL	0.098 µg/mL	0.049 µg/mL	0.049 µg/mL	0.098 µg/mL	Fold changes of MICs [1]: 2 fold; Fold changes of MICs [2]: 1 fold; Fold changes of MICs ([3]; EKO-35 araC::acr-B Pore compared to EKO-35-Pore): 8 fold; MIC ([3]; Escherichia coli, Table 14A, porinated, technical duplicate, read-out: Minimum inhibitory concentration, EKO-35 araC::acrB Pore): 0.391 µg/mL; Fold changes of MICs [4]: 1 fold; Fold changes of MICs [5]: 2 fold; Fold changes of MICs [8]: 1 fold; Fold change of MICs [9]: 1 fold; Fold change of MICs [10]: 8 fold; Fold change of MICs [11]: 1 fold; Fold change of MICs [12]: 1 fold; Fold change of MICs [13]: 1 fold; Fold change of MICs [14]: 1 fold; Fold change of MICs [15]: 2 fold; Fold change of MICs [16]: 1 fold; Fold change of MICs [17]: 1 fold; Fold change of MICs [18]: 2 fold
CC[C@H]1OC(=O)[C@H](C)[C@@H](O[C@H]2C[C@@](C)(OC)[C@@H](O)[C@H](C)O2)[C@H](C)[C@@H](O[C@@H]2O[C@H](C)C[C@H](N(C)C)[C@H]2O)[C@](C)(O)C[C@@H](C)C(=O)[C@H](C)[C@@H](O)[C@]1(C)O [erythromycin]	0.195 µg/mL	0.195 µg/mL	0.098 µg/mL	1.56 µg/mL	6.25 µg/mL	6.25 µg/mL	0.195 µg/mL	0.195 µg/mL	0.195 µg/mL	0.195 µg/mL	50 µg/mL	100 µg/mL	3.12 µg/mL	3.12 µg/mL	12.5 µg/mL	25 µg/mL	3.12 µg/mL	3.12 µg/mL	3.12 µg/mL	50 µg/mL	efflux pump-mediated resistance vs EKO-35 ([13]; MacAB): specific
COc1cccc2c1C(=O)c1c(O)c3c(c(O)c1C2=O)C[C@@](O)(C(C)=O)C[C@@H]3O[C@H]1C[C@H](N)[C@H](O)[C@H](C)O1 [daunorubicin]	1.56 µg/mL	1.56 µg/mL	0.781 µg/mL	25 µg/mL	100 µg/mL	100 µg/mL	0.781 µg/mL	0.781 µg/mL	0.781 µg/mL	0.781 µg/mL	200 µg/mL	200 µg/mL	1.56 µg/mL	3.12 µg/mL	6.25 µg/mL	100 µg/mL	6.25 µg/mL	3.12 µg/mL	3.12 µg/mL	200 µg/mL	Fold changes of MICs [1]: 2 fold; Fold changes of MICs [2]: 2 fold; Fold changes of MICs [4]: 1 fold; Fold changes of MICs [5]: 32 fold; Fold changes of MICs [8]: 1 fold; Fold change of MICs [9]: 64 fold; Fold change of MICs [10]: 64 fold; Fold change of MICs [11]: 1 fold; Fold change of MICs [12]: 1 fold; Fold change of MICs [13]: 2 fold; Fold change of MICs [14]: 32 fold; Fold change of MICs [15]: 2 fold; Fold change of MICs [16]: 1 fold; Fold change of MICs [17]: 1 fold; Fold change of MICs [18]: 64 fold
